Assay results taken from patent publication US11000033B2, “Ketone or oxime compound, and herbicide” (NISSAN CHEMICAL CORPORATION, priority 2014, dated 2021).

How the values were obtained:
Assay type in all cases: in vivo
Leptochloa chinensis = test: Test Example 3: herbicidal effect by foliage application, Wagner pot (symbol D); conditions: application herbicide amount 320 g/ha
Summary of the method: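 Seeds sown in alluvial soil kept under 0.1–0.5 cm water, greenhouse 25–30 °C; 14 d growth. Leaves treated by small sprayer with water-diluted emulsion at a predetermined rate. Effect graded by set scale, 3 weeks.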

Galium spurium = test: Test Example 5: herbicidal effect by foliage application, plastic box (symbol Q); conditions: 320 g/ha, 3 weeks after application
Summary of the method: (§1)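 Greenhouse foliar test: seedlings at 14 days, grown 25° C. to 30° C. in sterilized diluvial soil; compound applied as an aqueous dilution of an emulsion; response read 3 weeks after spraying.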

Digitaria ciliaris = test: Test Example 4: herbicidal effect by soil treatment (symbol F); conditions: 320 g/ha
Summary of the method: (§2)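 Seeds were sown in sterilized diluvial soil, covered with about 1.5 cm of soil, and the soil surface was sprayed with a water-diluted emulsion of the compound at a predetermined rate. Plants grew in a greenhouse at 25° C. to 30° C.; effects were scored visually 3 weeks after application.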

Abutilon theophrasti = test: Test Example 4: herbicidal effect by soil treatment (symbol M); conditions: 320 g/ha
Summary of the method: as §2

beet = test: Test Example 5: effect on crop by foliage application, plastic box (symbol f); conditions: 320 g/ha, 3 weeks after application
Summary of the method: (§3)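 A greenhouse held between 25° C. and 30° C. was used to grow plants sown spot-wise, beneath ~1.5 cm of soil, in boxes of sterilized diluvial soil.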

rapeseed = test: Test Example 4: effect on crop by soil treatment (symbol g); conditions: 320 g/ha
Summary of the method: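 Sterilized diluvial soil, spot sowing, ~1.5 cm soil cover; greenhouse 25–30° C.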

Amaranthus retroflexus = test: Test Example 4: herbicidal effect by soil treatment (symbol N); conditions: 320 g/ha
Summary of the method: as §2

[1] = system: directly sowed rice plant; test: Test Example 3: effect on crop by foliage application, Wagner pot (symbol b); conditions: application herbicide amount 320 g/ha
Summary of the method: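 Alluvial soil in a 1/10000-are Wagner pot was flooded to a water depth of 0.1–0.5 cm. Echinochloa crus-galli var. crus-galli, Leptochloa chinensis, Cyperus difformis and rice were sown into it and grown in a greenhouse at 25–30 °C.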

corn = test: Test Example 5: effect on crop by foliage application, plastic box (symbol c); conditions: 320 g/ha, 3 weeks after application
Summary of the method: as §3

transplanted rice plant = test: Test Example 1: effect on crop, application before weed generation in submerged conditions (symbol a); conditions: application herbicide amount 320 g/ha
Summary of the method: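 Rice at 2.5 leaf stage transplanted into submerged soil (4 cm depth) sown with three weed species; herbicide applied before weed emergence.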

Apera spica-venti = test: Test Example 5: herbicidal effect by foliage application, plastic box (symbol L); conditions: 320 g/ha, 3 weeks after application
Summary of the method: as §1

wheat = test: Test Example 5: effect on crop by foliage application, plastic box (symbol e); conditions: 320 g/ha, 3 weeks after application
Summary of the method: as §3

Monochoria vaginalis = test: Test Example 1: herbicidal activity, application before weed generation in submerged conditions (symbol C); conditions: application herbicide amount 320 g/ha
Summary of the method: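 Mixed weed seeds sown in alluvial soil under 4 cm of water, with rice seedlings at the 2.5-leaf stage added. Same-day treatment: emulsion diluted to a set herbicide amount onto the water. Three weeks at 25–30 °C, then graded on a six-step scale.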

Structure (SMILES)	herbicidal effect on D (Leptochloa chinensis), grade 0-5 (Leptochloa chinensis)	Q: Galium spurium, herbicidal effect (criteria 0-5) (Galium spurium)	F: Digitaria ciliaris, herbicidal effect grade (Digitaria ciliaris)	M: Abutilon theophrasti, herbicidal effect grade (Abutilon theophrasti)	f: beet, effect on crop (criteria 0-5) (beet)	g: rapeseed, effect grade on crop (rapeseed)	N: Amaranthus retroflexus, herbicidal effect grade (Amaranthus retroflexus)	effect on crop b (directly sowed rice plant), grade 0-5 [1]	c: corn, effect on crop (criteria 0-5) (corn)	Effect grade on crop, a: transplanted rice plant (transplanted rice plant)	L: Apera spica-venti, herbicidal effect (criteria 0-5) (Apera spica-venti)	e: wheat, effect on crop (criteria 0-5) (wheat)	Herbicidal effect grade, C: Monochoria vaginalis (Monochoria vaginalis)
CON=C(C)CC1CC(OC(=O)N(C)CCCCCl)=C(c2c(C)cc(C)cc2C)C1=O (centres unmarked) [1-126]	5 (Herbicidal ratio of 90% or more (almost completely withered))	0 (Herbicidal ratio of 5% or lower (almost no effect))	0 (Herbicidal ratio of 5% or lower (almost no effect))	0 (Herbicidal ratio of 5% or lower (almost no effect))	0 (Herbicidal ratio of 5% or lower (almost no effect))	0 (Herbicidal ratio of 5% or lower (almost no effect))	0 (Herbicidal ratio of 5% or lower (almost no effect))	5 (Herbicidal ratio of 90% or more (almost completely withered))	0 (Herbicidal ratio of 5% or lower (almost no effect))	3 (Herbicidal ratio of 40% or higher and lower than 70%)	3 (Herbicidal ratio of 40% or higher and lower than 70%)	0 (Herbicidal ratio of 5% or lower (almost no effect))	0 (Herbicidal ratio of 5% or lower (almost no effect))
CON=C(C)CC1CC(OC(=O)CN(C)C(=O)c2ccccc2)=C(c2c(C)cc(C)cc2C)C1=O (centres unmarked) [1-139]	5 (Herbicidal ratio of 90% or more (almost completely withered))	3 (Herbicidal ratio of 40% or higher and lower than 70%)	5 (Herbicidal ratio of 90% or more (almost completely withered))	4 (Herbicidal ratio of 70% or higher and lower than 90%)	0 (Herbicidal ratio of 5% or lower (almost no effect))	1 (Herbicidal ratio of 5% or higher and lower than 20%)	3 (Herbicidal ratio of 40% or higher and lower than 70%)	5 (Herbicidal ratio of 90% or more (almost completely withered))	5 (Herbicidal ratio of 90% or more (almost completely withered))	5 (Herbicidal ratio of 90% or more (almost completely withered))	5 (Herbicidal ratio of 90% or more (almost completely withered))	5 (Herbicidal ratio of 90% or more (almost completely withered))	1 (Herbicidal ratio of 5% or higher and lower than 20%)
